{"source": "patent US20230265405A1", "about": "“ENGINEERED NUCLEASES AND METHODS OF USE THEREOF” (Massachusetts Institute of Technology, priority 2022, published 2023)", "format_in_all_cases": "cell-based, human", "key": {"[1]": {"tested_on": "GFP transgene", "test": "Prime editing GFP to BFP conversion with pegRNA and nicking gRNA, flow cytometry", "source_text": "(§1) We tested these engineered variants by applying prime editing with a pegRNA and nicking gRNA to convert a GFP transgene to BFP, similar to the HDR assay.\n(§2) We next examined whether vPE produces precise editing by again applying prime editing to convert a GFP transgene to BFP. […] As prime editors can produce indels without the prime edit, with the prime edit, or with the prime edit and pegRNA scaffold incorporation (Chen et al. Cell 184, 5635-5652.e29 (2021)), we further determined how these different indel types were affected.\nFlow cytometry analysis was performed on an LSR Fortessa analyzer and data was collected using FACSDiva (BD Biosciences). Cells were first gated comparing SSC-A and FSC-A, then SSC-H and SSC-W, then FSC-H and FSC-W parameters to select for single cells. To assess editing frequencies, cells were gated for GFP (488 nm laser excitation, 530/30 nm filter detection) and BFP (405 nm laser excitation, 450/50 nm filter detection). To profile cell cycle stage, cells were gated for propidium iodide (561 nm laser excitation, 610/20 nm filter detection) and Alexa Fluor 647 (640 nm laser excitation, 670/30 nm filter detection). Flow cytometry data were analyzed using FlowJo (FlowJo)."}, "[2]": {"tested_on": "KRAS locus in HEK293T cells", "test": "Prime editor variant screen with pegRNA and nicking gRNA (PE3), deep sequencing", "procedure": "To measure precise editing and indel frequencies for these mutants, we combined them with a pegRNA and nicking gRNA (double-nicking prime editing, or PE3) that produces a small sequence replacement at the KRAS locus in HEK293T cells by prime editing and analyzed alterations using deep sequencing of the amplified locus.\nas §1\nCells were seeded in the maintenance medium without Pen-Strep into 24-well plates at 100,000 cells/well or 48-well plates at 50,000 cells/well. […] Transfections of HEK293T with prime editing vectors were carried out 24 hrs after seeding using 475 ng PE expression vector, 114 ng pegRNA expression vector, and 144 ng nicking gRNA expression vector (for PE3) formulated with 1.47-1.83 μL (equal volume/DNA) Lipofectamine 2000 at a total volume of 58.9-73.3 μL (equal DNA concentration) in OptiMEM I (ThermoFisher) per well for 24-well plates, or half these volumes for 48-well plates. For sequencing assays, genomic DNA was extracted 72 hrs after transfection using QuickExtract (Epicentre). For flow cytometry assays, cells were transferred to 6-well plates 72 hrs after transfection, split 7 days after transfection, and harvested 10 days after transfection in PBS with 5% FBS (ThermoFisher). […]"}, "[3]": {"tested_on": "several loci in HEK293T cells", "test": "Prime editing with pegRNAs and nicking gRNAs (double-nicking, PE3) at several loci, deep sequencing", "conditions": "for precise editing frequencies (mean): mean across several loci; for precise editing frequencies: range across several loci", "procedure": "We compared PEmax and PE for creating small edits at the EMX1, GFP, KRAS, and MYC loci in HEK293T cells.\nas §2\n(§3) Cells were seeded in the maintenance medium without Pen-Strep into 24-well plates at 100,000 cells/well or 48-well plates at 50,000 cells/well. […] Transfections of HEK293T with prime editing vectors were carried out 24 hrs after seeding using 475 ng PE expression vector, 114 ng pegRNA expression vector, and 144 ng nicking gRNA expression vector (for PE3) formulated with 1.47-1.83 μL (equal volume/DNA) Lipofectamine 2000 at a total volume of 58.9-73.3 μL (equal DNA concentration) in OptiMEM I (ThermoFisher) per well for 24-well plates, or half these volumes for 48-well plates. For sequencing assays, genomic DNA was extracted 72 hrs after transfection using QuickExtract (Epicentre). For flow cytometry assays, cells were transferred to 6-well plates 72 hrs after transfection, split 7 days after transfection, and harvested 10 days after transfection in PBS with 5% FBS (ThermoFisher). Repair templates, listed in Supplementary Table 4, were synthesized by IDT.\n(§4) The targeted loci were amplified from extracted genomic DNA by PCR using Herculase II polymerase (Agilent). The PCR primers included Illumina sequencing handles as well as replicate-specific barcodes. These PCR products were then tagged with sample-specific barcodes and sequenced on an Illumina MiSeq. Primers, listed in Supplementary Table 5, were synthesized by IDT.\n(§5) To measure editing outcomes, the high-throughput sequencing data were analyzed using CRISPResso2 25. Total editing rates were quantified as the fraction of edited reads out of total sequencing reads. Indel rates were quantified as the fraction of reads containing indels out of total sequencing reads. Precise editing rates were quantified as the fraction of reads containing a perfect match to the expected edit out of total sequencing reads. Frequencies of specific indel sizes were quantified as the fraction of reads containing these sizes out of all edited reads. Depletion of specific indel sizes by templated repair was quantified as the fractional reduction in the frequency of that indel size, comparing frequencies for when a template was present versus absent. Mean indel sizes were calculated as the mean of the absolute values of indel sizes weighted by their indel fractions."}, "[4]": {"tested_on": "several loci in HEK293T cells", "test": "Prime editing with pegRNAs without nicking gRNAs (single-nicking, PE2) at several loci, deep sequencing", "conditions": "for indel frequencies: all loci; for precise editing frequencies (mean): mean across several loci; for precise editing frequencies: range across several loci", "procedure": "Considering this broad suppression of all indel types, we also studied whether vPE reduced indel frequency at several loci in HEK293T cells using pegRNAs without nicking gRNAs (single-nicking prime editing, or PE2).\nas §3, §4, §5"}, "[5]": {"conditions": "vPE versus PE, range across loci"}}, "note": "Read-outs that look alike come from different tables or passages of the source.", "data": [{"substance": "vPE: PE prime editor with K848A-H982A in the Cas9 nickase, SEQ ID NO: 294", "values": [{"measurement": "indels and precise editing, GFP to BFP conversion", "setting": "[1]", "result": "efficient precise gene conversion with limited indels"}, {"measurement": "indels and precise editing, GFP to BFP conversion", "setting": "[1]; listed as K848A-H982A", "result": "nearly eliminated indels while promoting precise editing"}, {"measurement": "precision, rank among PE variants", "setting": "[2]", "result": "most precise variant"}, {"measurement": "precise editing frequency and indel frequency relative to PE", "setting": "[2]; dual-mutation variants, KRAS locus", "result": "increased precise editing frequency and reduced indel frequency"}, {"measurement": "indels resulting from prime editing", "setting": "[3]; all loci", "result": "nearly eliminated indels"}, {"measurement": "frequencies of each indel type", "setting": "[3]; indels without prime edit, with prime edit, with pegRNA scaffold incorporation", "result": "decreasing the frequencies of each indel type"}, {"measurement": "precise editing frequencies (mean)", "setting": "[3]", "result": 82.5, "unit": "%"}, {"measurement": "precise editing frequencies", "setting": "[3]", "result": "57.7-97.4%"}, {"measurement": "suppression of indel frequency (mean)", "setting": "[3]; vPE versus PE, mean", "result": 4.7, "unit": "fold"}, {"measurement": "suppression of indel frequency", "setting": "[3]; [5]", "result": "2.0- to 13.0 fold"}, {"measurement": "indel types", "setting": "[4]", "result": "reductions in all indel types"}, {"measurement": "indel frequencies", "setting": "[4]", "result": "lower indel frequencies"}, {"measurement": "precise editing frequencies (mean)", "setting": "[4]", "result": 90.5, "unit": "%"}, {"measurement": "precise editing frequencies", "setting": "[4]", "result": "84.2-98.4%"}, {"measurement": "suppression of indel frequency (mean)", "setting": "[4]; vPE versus PE, mean", "result": 1.7, "unit": "fold"}, {"measurement": "suppression of indel frequency", "setting": "[4]; [5]", "result": "1.1- to 2.5 fold"}]}, {"substance": "PE: Prime editor: variant of PEmax with the R221K and N394K mutations reverted; SEQ ID NO: 293 (nucleic acid 286)", "values": [{"measurement": "precise editing frequencies (mean)", "setting": "[3]", "result": 49.1, "unit": "%"}, {"measurement": "precise editing frequencies", "setting": "[3]", "result": "14.7-69.8%"}, {"measurement": "indel frequencies", "setting": "[4]", "result": "fairly low indel frequencies"}, {"measurement": "precise editing frequencies (mean)", "setting": "[4]", "result": 82.7, "unit": "%"}, {"measurement": "precise editing frequencies", "setting": "[4]", "result": "72.3-98.2%"}]}]}
